# Measurements as given in ChEMBL document CHEMBL4251570, “Synthesis and biological evaluation of a novel β-D-2'-deoxy-2'-α-fluoro-2'-β-C-(fluoromethyl)uridine phosphoramidate prodrug for the treatment of hepatitis C virus infection” (Eur J Med Chem, 2018).
# Activity calls are given as the source filed them. No cut-off for these calls is given here.
# Key:
# [1] = Cytotoxicity against human HuH7 cells after 72 hrs by CellTiter 96 AQueous one solution cell proliferation assay; assay type: cell-based, Huh-7
# Hepatitis C virus [2] = test: Antiviral activity against Hepatitis C virus JFH-1 infected in human HuH7 cells assessed as inhibition of viral RNA replication after 3 days by quantitative real-time RT-PCR analysis; assay type: functional, organism-based; conditions: for Activity: Hepacivirus hominis; for EC50 / EC90: JFH-1, Huh-7, 72 h
# [3] = Drug level in Sprague-Dawley rat liver treated with at 50 mg/kg, po 2-(((S)-(((2R,3R,4R,5R)-5-(2,4-dioxo-3,4-dihydropyrimidin-1(2H)-yl)-4-fluoro-4-(fluoromethyl)-3-hydroxytetrahydrofuran-2-yl)methoxy) (phenoxy)phosphoryl)amino) propanoate assessed as compound formation by HPLC-MS/MS analysis; assay type: ADME, organism-based; conditions: in vivo
# Hepatitis C virus [4] = test: Antiviral activity against Hepatitis C virus JFH-1 infected in human HuH7 cells assessed as inhibition of viral core protein levels at 1 uM by Western blot method; assay type: functional, organism-based; conditions: Hepacivirus hominis
# Hepatitis C virus [5] = test: Antiviral activity against Hepatitis C virus genotype 1b infected in human HuH7 cells after 48 hrs by luciferase reporter gene assay; assay type: functional, organism-based, Hepacivirus hominis; conditions: Huh-7, 48 h
# Hepatitis C virus [6] = test: Antiviral activity against Hepatitis C virus genotype 1a infected in human HuH7 cells after 48 hrs by luciferase reporter gene assay; assay type: functional, organism-based, Hepacivirus hominis; conditions: subtype 1a, Huh-7, 48 h
# Hepatitis C virus [7] = test: Antiviral activity against Hepatitis C virus genotype 2a infected in human HuH7 cells after 48 hrs by luciferase reporter gene assay; assay type: functional, organism-based, Hepacivirus hominis; conditions: Huh-7, 48 h
# Hepatitis C virus [8] = test: Antiviral activity against Hepatitis C virus genotype 1b expressing NS5B RNA dependent RNA polymerase S282T mutant infected in human HuH7 cells after 48 hrs by luciferase reporter gene assay; assay type: functional, organism-based, Hepacivirus hominis; conditions: Huh-7, 48 h
# Mus musculus [9] = test: Acute toxicity in Kunming mouse assessed as mortality at 2 to 4 g/kg, po administered as single dose measured after 15 days; assay type: organism-based; conditions: in vivo, 360 h
# Mus musculus [10] = test: Acute toxicity in Kunming mouse assessed as change in body weight at 2 to 4 g/kg, po administered as single dose measured after 15 days; assay type: organism-based; conditions: in vivo, 360 h
# Mus musculus [11] = test: Acute toxicity in Kunming mouse assessed as induction of damage to heart at 2 to 4 g/kg, po administered as single dose measured after 15 days; assay type: organism-based; conditions: in vivo, 360 h
# Mus musculus [12] = test: Acute toxicity in Kunming mouse assessed as induction of damage to liver at 2 to 4 g/kg, po administered as single dose measured after 15 days; assay type: organism-based; conditions: in vivo, 360 h
# Mus musculus [13] = test: Acute toxicity in Kunming mouse assessed as induction of damage to spleen at 2 to 4 g/kg, po administered as single dose measured after 15 days; assay type: organism-based; conditions: in vivo, 360 h
# Mus musculus [14] = test: Acute toxicity in Kunming mouse assessed as induction of induction of damage to lung at 2 to 4 g/kg, po administered as single dose measured after 15 days; assay type: organism-based; conditions: in vivo, 360 h
# Mus musculus [15] = test: Acute toxicity in Kunming mouse assessed as induction of damage to kidney at 2 to 4 g/kg, po administered as single dose measured after 15 days; assay type: organism-based; conditions: in vivo, 360 h
# [16] = Half life in simulated gastric fluid at pH 1.2 at 1 mg/ml incubated up to 24 hrs at 37 degC by HPLC analysis; assay type: ADME
# [17] = Half life in simulated intestinal fluid at pH 7.4 at 1 mg/ml incubated up to 24 hrs at 37 degC by HPLC analysis; assay type: ADME
# [18] = Half life in human plasma at 1 mg/ml incubated up to 24 hrs at 37 degC by HPLC analysis; assay type: ADME, cell-free
# [19] = Half life in human liver S9 fraction at 1 mg/ml incubated up to 120 mins at 37 degC by HPLC analysis; assay type: ADME, subcellular
# [20] = AUC (0 to t) in Sprague-Dawley rat liver assessed as 1-((2R,3R,4R,5R)-3-fluoro-3-(fluoromethyl)-4-hydroxy-5-(hydroxymethyl)tetrahydrofuran-2-yl)pyrimidine-2,4(1H,3H)-dione triphosphate at 50 mg/kg administered via oral gavage by HPLC-MS/MS analysis; assay type: ADME, organism-based; conditions: in vivo
# [21] = AUC (0 to infinity) in Sprague-Dawley rat liver assessed as 1-((2R,3R,4R,5R)-3-fluoro-3-(fluoromethyl)-4-hydroxy-5-(hydroxymethyl)tetrahydrofuran-2-yl)pyrimidine-2,4(1H,3H)-dione triphosphate at 50 mg/kg administered via oral gavage by HPLC-MS/MS analysis; assay type: ADME, organism-based; design: dose 50 mg/kg, time infinity, route oral; conditions: in vivo
# [22] = Half life in Sprague-Dawley rat liver assessed as 1-((2R,3R,4R,5R)-3-fluoro-3-(fluoromethyl)-4-hydroxy-5-(hydroxymethyl)tetrahydrofuran-2-yl)pyrimidine-2,4(1H,3H)-dione triphosphate at 50 mg/kg administered via oral gavage by HPLC-MS/MS analysis; assay type: ADME, organism-based; conditions: in vivo
# [23] = Tmax in Sprague-Dawley rat liver assessed as 1-((2R,3R,4R,5R)-3-fluoro-3-(fluoromethyl)-4-hydroxy-5-(hydroxymethyl)tetrahydrofuran-2-yl)pyrimidine-2,4(1H,3H)-dione triphosphate at 50 mg/kg administered via oral gavage by HPLC-MS/MS analysis; assay type: ADME, organism-based; conditions: in vivo
# [24] = Cmax in Sprague-Dawley rat liver assessed as 1-((2R,3R,4R,5R)-3-fluoro-3-(fluoromethyl)-4-hydroxy-5-(hydroxymethyl)tetrahydrofuran-2-yl)pyrimidine-2,4(1H,3H)-dione triphosphate at 50 mg/kg administered via oral gavage by HPLC-MS/MS analysis; assay type: ADME, organism-based; design: dose 50 mg/kg, route oral; conditions: in vivo
# Mus musculus [25] = test: Acute toxicity in Kunming mouse assessed as induction of observable clinical toxic signs at 2 to 4 g/kg, po administered as single dose measured after 15 days; assay type: organism-based; conditions: in vivo, 360 h
structure (smiles),measurement,setting,value
CC(C)OC(=O)[C@H](C)N[P@](=O)(OC[C@H]1O[C@@H](n2ccc(=O)[nH]c2=O)[C@](C)(F)[C@@H]1O)Oc1ccccc1 [SOFOSBUVIR],CC50 at 72 h,[1],> 1000 µM
same,Activity,Hepatitis C virus [2],Dose-dependent effect
same,EC50,Hepatitis C virus [2],0.27 µM
same,EC90,Hepatitis C virus [2],0.83 µM
O=c1ccn([C@@H]2O[C@H](COP(=O)(O)OP(=O)(O)OP(=O)(O)O)[C@@H](O)[C@]2(F)CF)c(=O)[nH]1,Drug metabolism,[3],Metabolite_Detected
CC(C)OC(=O)[C@H](C)N[P@](=O)(OC[C@H]1O[C@@H](n2ccc(=O)[nH]c2=O)[C@@](F)(CF)[C@@H]1O)Oc1ccccc1,CC50 at 72 h,[1],> 1000 µM
same,Activity,Hepatitis C virus [2],Dose-dependent effect
same,EC50,Hepatitis C virus [2],0.18 µM
same,EC90,Hepatitis C virus [2],0.74 µM
same,Activity,Hepatitis C virus [4],Active
same,EC50,Hepatitis C virus [5],0.24 µM
same,EC90,Hepatitis C virus [5],0.5 µM
same,EC50,Hepatitis C virus [6],0.31 µM
same,EC90,Hepatitis C virus [6],1.26 µM
same,EC50,Hepatitis C virus [7],0.54 µM
same,EC90,Hepatitis C virus [7],3.05 µM
same,EC50,Hepatitis C virus [8],1.13 µM
same,EC90,Hepatitis C virus [8],7.7 µM
same,Activity,Mus musculus [9],Non-Toxic
same,Activity,Mus musculus [10],Non-Toxic
same,Activity,Mus musculus [11],Non-Toxic
same,Activity,Mus musculus [12],Non-Toxic
same,Activity,Mus musculus [13],Non-Toxic
same,Activity,Mus musculus [14],Non-Toxic
same,Activity,Mus musculus [15],Non-Toxic
same,half-life at 1 mg/ml,[16],> 24 h
same,half-life at 1 mg/ml,[17],> 24 h
same,half-life at 1 mg/ml,[18],17.3 h
same,half-life,[19],0.49 h
same,AUCt,[20],14540 ng·h/g
same,AUC,[21],15655 ng·h/g
same,t1/2,[22],3.73 h
same,Tmax,[23],5.83 h
same,Cmax,[24],1895 ng/g
same,Activity,Mus musculus [25],Non-Toxic
O=c1ccn([C@@H]2O[C@H](CO)[C@@H](O)[C@]2(F)CF)c(=O)[nH]1,CC50 at 72 h,[1],> 1000 µM
